In PMC11275057, “Biochemical and Functional Profiling of Thioredoxin-Dependent Cytosolic GPX-like Proteins in Euglena gracilis” (Biomolecules, 2024) one finds Km data, which are given here for one compound.

The subject of one test is T1, rEgGPXL-4.
T1 construct: gene EgGPXL-4; full-length ORF, 159 residues, no signal peptide, pCold-II 6xHis tag, E. coli BL21, TALON purified, about 18-20 kDa; plant-type GPX; cDNA 787 bp; printed Cys-64, Gln-66, Phe-67, Glu-71, Gly-100, Asn-126, Phe-127, Lys-129, Gly-136
The experiment in a line: NADPH oxidation at […] nm, thioredoxin/thioredoxin reductase coupled. Type of test: biochemical, Euglena gracilis. Conditions: 6 µM yeast Trx-2 as electron donor, 0.3 µM yeast Trx reductase, 0.2 mM NADPH, 20 mM HEPES-NaOH pH 7.5; t-BOOH up to 0.04 mM.

In the next test the test system is T2, rEgGPXL-2.
T2 construct: gene EgGPXL-2; full-length ORF, 173 residues, no signal peptide, pCold-II 6xHis tag, E. coli BL21, TALON purified, about 18-20 kDa; animal-type GPX, Cys-45 in place of Sec; cDNA 737 bp
The description is as above. Format: biochemical, Euglena gracilis. The settings on record: 6 µM yeast Trx-2 as electron donor, 0.3 µM yeast Trx reductase, 0.2 mM NADPH, 20 mM HEPES-NaOH pH 7.5; t-BOOH up to 0.04 mM.

What is called Km is the concentration of substrate that gives half-maximal velocity. In the case of `CC(C)(C)OO` [t-BOOH], the Km was 38.5 ± 1.6 µM in the test on rEgGPXL-4 and 28.5 ± 3.1 µM in the test on rEgGPXL-2.
